Experimental data as given in ChEMBL document CHEMBL1201862, “PubChem BioAssay data set” (2004).
Active and inactive are the calls of the source.

Tests used:
[1] = system: Streptococcus; assay: Group A Streptococcus viability loss, dose response, counter-screen for streptokinase expression inhibitor project, luminescence, BacTiterGlo (AID 1915); format: functional, organism-based;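 also: potency for reduction of bacterial viability or growth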
[2] = microbe, parasite or virus in culture; format: functional; conditions: Mycobacterium tuberculosis
[3] = biological target: T1, Streptokinase A (Streptococcus pyogenes serotype M1, UniProt P10520); assay: S. pyogenes streptokinase expression inhibitors, potency, dose response, plasminogen activation absorbance, OD405 (AID 1914); format: functional, Streptococcus pyogenes M1 GAS;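 also: secreted streptokinase activity via plasminogen activation per viability signal from cell pellet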
T1 sequence (P10520 whole entry): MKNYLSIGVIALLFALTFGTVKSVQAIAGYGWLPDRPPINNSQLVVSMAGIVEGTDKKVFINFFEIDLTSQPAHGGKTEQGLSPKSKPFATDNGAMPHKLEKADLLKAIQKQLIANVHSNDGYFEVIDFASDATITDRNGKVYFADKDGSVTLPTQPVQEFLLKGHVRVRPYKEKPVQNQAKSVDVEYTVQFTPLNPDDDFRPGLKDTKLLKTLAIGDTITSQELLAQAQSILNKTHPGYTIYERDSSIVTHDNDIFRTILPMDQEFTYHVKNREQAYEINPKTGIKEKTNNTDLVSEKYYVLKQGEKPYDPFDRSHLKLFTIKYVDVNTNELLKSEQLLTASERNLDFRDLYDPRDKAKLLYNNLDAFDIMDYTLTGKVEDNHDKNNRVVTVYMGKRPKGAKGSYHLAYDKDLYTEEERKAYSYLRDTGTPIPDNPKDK

[4] = system: Streptococcus sp. 'group A'; assay: growth inhibition of control SK(-) GAS strain, dose response, counter-screen for streptokinase expression inhibitor project, luminescence, kanamycin, BacTiterGlo, confirmation (AID 1900); format: functional, organism-based
[5] = biological target: Genome polyprotein (dengue virus type 2, UniProt P29990); assay: Dengue-2 NS5 methyltransferase inhibitors, primary screen, biochemical, confirmation dose response (AID 588689); format: functional
Genome polyprotein, sequence (P29990 2492-3391 limits assumed): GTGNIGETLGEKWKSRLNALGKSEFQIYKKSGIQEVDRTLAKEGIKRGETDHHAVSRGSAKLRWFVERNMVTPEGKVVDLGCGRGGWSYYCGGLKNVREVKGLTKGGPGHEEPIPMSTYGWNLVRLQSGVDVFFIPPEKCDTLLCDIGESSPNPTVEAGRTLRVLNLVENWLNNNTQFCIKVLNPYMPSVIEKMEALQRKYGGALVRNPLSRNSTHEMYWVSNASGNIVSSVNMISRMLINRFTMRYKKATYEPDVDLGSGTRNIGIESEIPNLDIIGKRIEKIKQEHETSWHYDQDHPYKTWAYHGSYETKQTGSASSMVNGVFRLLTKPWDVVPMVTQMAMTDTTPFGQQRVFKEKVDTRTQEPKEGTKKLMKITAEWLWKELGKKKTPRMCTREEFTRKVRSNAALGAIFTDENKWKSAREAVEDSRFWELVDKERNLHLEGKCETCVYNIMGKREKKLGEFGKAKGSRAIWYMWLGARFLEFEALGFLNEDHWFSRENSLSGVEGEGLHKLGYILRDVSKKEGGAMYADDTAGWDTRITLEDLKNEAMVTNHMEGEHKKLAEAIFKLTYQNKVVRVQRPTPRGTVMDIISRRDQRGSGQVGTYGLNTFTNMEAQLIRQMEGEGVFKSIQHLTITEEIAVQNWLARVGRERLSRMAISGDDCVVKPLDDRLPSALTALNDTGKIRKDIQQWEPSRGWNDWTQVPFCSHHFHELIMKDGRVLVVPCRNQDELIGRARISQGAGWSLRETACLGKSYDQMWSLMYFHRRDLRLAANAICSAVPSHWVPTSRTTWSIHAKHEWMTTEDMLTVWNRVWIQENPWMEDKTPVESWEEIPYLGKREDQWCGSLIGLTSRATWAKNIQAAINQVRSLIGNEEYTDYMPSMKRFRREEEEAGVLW

[6] = biological target: T2, Aminopeptidase N (Plasmodium falciparum FcB1/Columbia, UniProt O96935); assay: P. falciparum M1AAP inhibitors, biochemical, fluorogenic H-Leu-NHMec substrate, 1536-well (AID 1445); parameters: species or system Plasmodium falciparum 3D7, 3D7
T2 sequence (O96935 whole entry): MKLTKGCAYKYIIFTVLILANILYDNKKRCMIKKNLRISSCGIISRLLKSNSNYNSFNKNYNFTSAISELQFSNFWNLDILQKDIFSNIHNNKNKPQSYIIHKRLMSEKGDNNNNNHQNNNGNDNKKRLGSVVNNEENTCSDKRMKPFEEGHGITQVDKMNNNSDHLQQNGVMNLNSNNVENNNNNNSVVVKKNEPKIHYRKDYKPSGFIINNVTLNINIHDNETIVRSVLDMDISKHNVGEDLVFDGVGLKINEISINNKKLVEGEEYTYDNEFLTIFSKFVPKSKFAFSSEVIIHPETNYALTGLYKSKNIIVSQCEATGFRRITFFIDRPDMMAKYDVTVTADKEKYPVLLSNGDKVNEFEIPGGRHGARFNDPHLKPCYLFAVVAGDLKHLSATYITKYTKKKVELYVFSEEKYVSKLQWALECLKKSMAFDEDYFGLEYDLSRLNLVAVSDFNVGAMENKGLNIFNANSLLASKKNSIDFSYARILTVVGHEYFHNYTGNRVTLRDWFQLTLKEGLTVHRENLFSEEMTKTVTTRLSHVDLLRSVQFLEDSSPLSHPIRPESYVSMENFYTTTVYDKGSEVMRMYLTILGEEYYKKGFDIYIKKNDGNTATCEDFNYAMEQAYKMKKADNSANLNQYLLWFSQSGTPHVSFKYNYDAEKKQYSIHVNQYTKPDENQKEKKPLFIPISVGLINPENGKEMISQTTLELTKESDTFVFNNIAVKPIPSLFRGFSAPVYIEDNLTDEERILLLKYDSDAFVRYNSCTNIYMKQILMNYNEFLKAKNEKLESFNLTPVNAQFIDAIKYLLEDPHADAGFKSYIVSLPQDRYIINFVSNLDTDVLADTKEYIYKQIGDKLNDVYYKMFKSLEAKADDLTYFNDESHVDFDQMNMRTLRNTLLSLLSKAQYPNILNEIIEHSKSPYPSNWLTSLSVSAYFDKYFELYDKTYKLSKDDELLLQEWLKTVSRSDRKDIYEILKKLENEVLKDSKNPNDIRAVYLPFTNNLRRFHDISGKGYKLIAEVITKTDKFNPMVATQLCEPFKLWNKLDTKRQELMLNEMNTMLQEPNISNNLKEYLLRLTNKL

[7] = biological target: T3, High affinity choline transporter 1 (Homo sapiens, UniProt Q9GZV3); assay: CHT inhibitors, dose response, cell-based, 5-point CRC, membrane potential dye (AID 504840); format: functional
T3 sequence (Q9GZV3 whole entry): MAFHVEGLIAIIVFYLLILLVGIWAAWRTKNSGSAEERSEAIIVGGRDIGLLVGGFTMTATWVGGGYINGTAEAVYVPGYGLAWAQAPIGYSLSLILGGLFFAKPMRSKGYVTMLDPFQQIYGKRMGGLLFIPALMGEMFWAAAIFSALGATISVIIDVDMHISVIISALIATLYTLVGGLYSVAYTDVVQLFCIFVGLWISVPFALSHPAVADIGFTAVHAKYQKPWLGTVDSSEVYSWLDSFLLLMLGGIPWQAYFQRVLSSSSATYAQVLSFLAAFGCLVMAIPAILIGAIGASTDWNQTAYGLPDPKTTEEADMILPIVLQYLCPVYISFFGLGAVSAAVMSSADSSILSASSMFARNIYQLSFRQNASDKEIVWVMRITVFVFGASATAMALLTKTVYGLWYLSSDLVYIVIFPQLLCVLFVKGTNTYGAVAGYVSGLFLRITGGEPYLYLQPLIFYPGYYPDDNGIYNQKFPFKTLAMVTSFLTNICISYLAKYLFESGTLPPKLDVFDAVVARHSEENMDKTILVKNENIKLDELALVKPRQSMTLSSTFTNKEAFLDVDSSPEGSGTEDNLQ

[8] = inhibitors of intracellular T. cruzi replication, confirmation, NIH3T3 host cells, beta-gal luminescence (AID 2044); format: functional, cell-based;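 also: intracellular parasites grown in NIH/3T3 mouse fibroblasts as host cells; luminescent beta-galactosidase reporter signal from transgenic T. cruzi replicating inside host cells; inhibitors lower the luminescence signal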
[9] = cytotoxicity toward NIH3T3 fibroblasts, dose response, counter-screen, cell-based, ATP luminescence, mouse fibroblasts (AID 2010); format: functional;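 also: cells exposed to compound for about 90 hours before reading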
[10] = Luminescence Cell-Based Dose Retest to Confirm Inhibitors of Cancer Stem Cells. [Related pubchem assays (depositor defined):AID2717, AID2721]; format: functional; conditions: Homo sapiens
[11] = HEp-2 cell cytotoxicity, dose response, cytotoxicity control for RSV inhibitor project, HTS (AID 2410); format: functional; conditions: human respiratory syncytial virus
[12] = biological target: Cytochrome P450 3A4 (Homo sapiens, UniProt P08684); conditions: Potency;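 also: confirmatory qHTS run detecting inhibitors and substrates of CYP3A4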
Cytochrome P450 3A4, sequence (P08684 whole entry): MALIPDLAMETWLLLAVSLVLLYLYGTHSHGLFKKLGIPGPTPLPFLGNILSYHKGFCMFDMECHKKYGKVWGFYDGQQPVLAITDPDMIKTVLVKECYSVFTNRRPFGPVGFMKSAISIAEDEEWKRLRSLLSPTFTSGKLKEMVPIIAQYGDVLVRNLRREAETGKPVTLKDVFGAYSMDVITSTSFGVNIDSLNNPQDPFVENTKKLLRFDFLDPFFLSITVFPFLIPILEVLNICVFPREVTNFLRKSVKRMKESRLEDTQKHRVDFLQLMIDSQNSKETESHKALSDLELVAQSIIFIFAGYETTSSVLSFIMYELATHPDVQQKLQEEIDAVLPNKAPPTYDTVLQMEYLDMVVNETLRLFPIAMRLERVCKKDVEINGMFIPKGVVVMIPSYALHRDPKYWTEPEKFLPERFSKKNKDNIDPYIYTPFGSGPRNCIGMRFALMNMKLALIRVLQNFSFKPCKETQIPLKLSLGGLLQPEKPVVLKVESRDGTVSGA

[13] = biological target: T4, Rac GTPase-activating protein 1 (Homo sapiens, UniProt Q9H0H5); assay: MgcRacGAP GTPase-activating activity inhibitors, confirmation, biochemical, ADP Hunter fluorescence, primary and confirmatory (AID 624330); format: functional
T4 sequence (Q9H0H5 whole entry): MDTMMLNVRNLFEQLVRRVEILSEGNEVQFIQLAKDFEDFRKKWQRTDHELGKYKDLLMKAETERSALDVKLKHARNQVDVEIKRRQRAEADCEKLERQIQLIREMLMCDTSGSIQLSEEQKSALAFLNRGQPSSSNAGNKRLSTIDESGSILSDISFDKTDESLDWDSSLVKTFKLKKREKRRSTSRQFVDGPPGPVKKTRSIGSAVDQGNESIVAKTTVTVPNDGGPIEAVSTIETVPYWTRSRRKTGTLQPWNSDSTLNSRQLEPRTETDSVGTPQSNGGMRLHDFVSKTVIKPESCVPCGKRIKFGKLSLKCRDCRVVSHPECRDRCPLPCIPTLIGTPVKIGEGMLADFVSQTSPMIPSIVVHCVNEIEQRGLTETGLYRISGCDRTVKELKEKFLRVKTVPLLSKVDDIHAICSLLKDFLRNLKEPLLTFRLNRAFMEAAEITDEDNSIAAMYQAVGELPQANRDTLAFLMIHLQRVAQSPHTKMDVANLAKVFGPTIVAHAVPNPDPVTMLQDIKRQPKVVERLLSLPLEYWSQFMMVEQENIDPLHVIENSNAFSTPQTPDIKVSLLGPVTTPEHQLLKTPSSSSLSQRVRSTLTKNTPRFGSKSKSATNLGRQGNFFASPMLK

[14] = inhibitors of Vif binding to APOBEC3G peptide, primary screen, biochemical, TR-FRET, GST-Vif 1-94, biotin-A3G peptide, dose response retest (AID 1117319); format: functional;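 also: TR-FRET signal of purified GST-Vif binding a biotinylated A3G peptide; inhibitors lower the FRET signal by blocking Vif and A3G binding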
[15] = Vero E6 cell cytotoxicity, dose response, cytotoxicity control for non-replicating M. tuberculosis project, secondary assay (AID 492998); format: functional, VeroE6; conditions: Vero C1008
[16] = THP-1 cell cytotoxicity, dose response, cytotoxicity control for non-replicating M. tuberculosis project (AID 489025); format: functional
[17] = system: INS1; assay: beta cell apoptosis inhibitors, cytokine rescue, dose response, luminescence, retest (AID 449756); format: functional, cell-based; conditions: Rattus norvegicus;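 also: cell death triggered by IL-1 beta plus TNF-alpha plus IFN-gamma mixture; protective hits raise ATP signal compared with cytokine alone wells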
[18] = cells; format: functional, cell-based
[19] = HepG2 cell cytotoxicity, dose response, cytotoxicity control for non-replicating M. tuberculosis project (AID 489018); format: functional; conditions: Mycobacterium tuberculosis
[20] = cells; format: functional, cell-based; remark: listed apart in the source
[21] = cells; format: functional
[22] = biological target: Nonstructural protein 1 (Influenza A virus, UniProt Q194T2); format: functional, Influenza A virus (A/California/07/2009(H1N1))
Nonstructural protein 1, sequence (Q194T2 whole entry, the tested form may be a part): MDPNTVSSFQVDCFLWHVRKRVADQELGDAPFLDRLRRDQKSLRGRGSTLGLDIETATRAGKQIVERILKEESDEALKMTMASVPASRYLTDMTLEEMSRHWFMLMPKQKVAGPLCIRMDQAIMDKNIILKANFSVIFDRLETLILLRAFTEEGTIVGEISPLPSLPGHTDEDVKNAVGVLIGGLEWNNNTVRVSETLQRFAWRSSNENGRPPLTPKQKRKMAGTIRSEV

[23] = biological target: T5, Fatty acid synthase (Homo sapiens, UniProt P49327); assay: FAS thioesterase domain inhibitors, dose response, biochemical, endpoint fluorescence intensity, uHTS hits (AID 624327); format: functional;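 also: fluorescence from hydrolysis of an O-methyl fluorescein acyl ester substrate by the enzyme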
T5 sequence (P49327 whole entry, the tested form may be a part): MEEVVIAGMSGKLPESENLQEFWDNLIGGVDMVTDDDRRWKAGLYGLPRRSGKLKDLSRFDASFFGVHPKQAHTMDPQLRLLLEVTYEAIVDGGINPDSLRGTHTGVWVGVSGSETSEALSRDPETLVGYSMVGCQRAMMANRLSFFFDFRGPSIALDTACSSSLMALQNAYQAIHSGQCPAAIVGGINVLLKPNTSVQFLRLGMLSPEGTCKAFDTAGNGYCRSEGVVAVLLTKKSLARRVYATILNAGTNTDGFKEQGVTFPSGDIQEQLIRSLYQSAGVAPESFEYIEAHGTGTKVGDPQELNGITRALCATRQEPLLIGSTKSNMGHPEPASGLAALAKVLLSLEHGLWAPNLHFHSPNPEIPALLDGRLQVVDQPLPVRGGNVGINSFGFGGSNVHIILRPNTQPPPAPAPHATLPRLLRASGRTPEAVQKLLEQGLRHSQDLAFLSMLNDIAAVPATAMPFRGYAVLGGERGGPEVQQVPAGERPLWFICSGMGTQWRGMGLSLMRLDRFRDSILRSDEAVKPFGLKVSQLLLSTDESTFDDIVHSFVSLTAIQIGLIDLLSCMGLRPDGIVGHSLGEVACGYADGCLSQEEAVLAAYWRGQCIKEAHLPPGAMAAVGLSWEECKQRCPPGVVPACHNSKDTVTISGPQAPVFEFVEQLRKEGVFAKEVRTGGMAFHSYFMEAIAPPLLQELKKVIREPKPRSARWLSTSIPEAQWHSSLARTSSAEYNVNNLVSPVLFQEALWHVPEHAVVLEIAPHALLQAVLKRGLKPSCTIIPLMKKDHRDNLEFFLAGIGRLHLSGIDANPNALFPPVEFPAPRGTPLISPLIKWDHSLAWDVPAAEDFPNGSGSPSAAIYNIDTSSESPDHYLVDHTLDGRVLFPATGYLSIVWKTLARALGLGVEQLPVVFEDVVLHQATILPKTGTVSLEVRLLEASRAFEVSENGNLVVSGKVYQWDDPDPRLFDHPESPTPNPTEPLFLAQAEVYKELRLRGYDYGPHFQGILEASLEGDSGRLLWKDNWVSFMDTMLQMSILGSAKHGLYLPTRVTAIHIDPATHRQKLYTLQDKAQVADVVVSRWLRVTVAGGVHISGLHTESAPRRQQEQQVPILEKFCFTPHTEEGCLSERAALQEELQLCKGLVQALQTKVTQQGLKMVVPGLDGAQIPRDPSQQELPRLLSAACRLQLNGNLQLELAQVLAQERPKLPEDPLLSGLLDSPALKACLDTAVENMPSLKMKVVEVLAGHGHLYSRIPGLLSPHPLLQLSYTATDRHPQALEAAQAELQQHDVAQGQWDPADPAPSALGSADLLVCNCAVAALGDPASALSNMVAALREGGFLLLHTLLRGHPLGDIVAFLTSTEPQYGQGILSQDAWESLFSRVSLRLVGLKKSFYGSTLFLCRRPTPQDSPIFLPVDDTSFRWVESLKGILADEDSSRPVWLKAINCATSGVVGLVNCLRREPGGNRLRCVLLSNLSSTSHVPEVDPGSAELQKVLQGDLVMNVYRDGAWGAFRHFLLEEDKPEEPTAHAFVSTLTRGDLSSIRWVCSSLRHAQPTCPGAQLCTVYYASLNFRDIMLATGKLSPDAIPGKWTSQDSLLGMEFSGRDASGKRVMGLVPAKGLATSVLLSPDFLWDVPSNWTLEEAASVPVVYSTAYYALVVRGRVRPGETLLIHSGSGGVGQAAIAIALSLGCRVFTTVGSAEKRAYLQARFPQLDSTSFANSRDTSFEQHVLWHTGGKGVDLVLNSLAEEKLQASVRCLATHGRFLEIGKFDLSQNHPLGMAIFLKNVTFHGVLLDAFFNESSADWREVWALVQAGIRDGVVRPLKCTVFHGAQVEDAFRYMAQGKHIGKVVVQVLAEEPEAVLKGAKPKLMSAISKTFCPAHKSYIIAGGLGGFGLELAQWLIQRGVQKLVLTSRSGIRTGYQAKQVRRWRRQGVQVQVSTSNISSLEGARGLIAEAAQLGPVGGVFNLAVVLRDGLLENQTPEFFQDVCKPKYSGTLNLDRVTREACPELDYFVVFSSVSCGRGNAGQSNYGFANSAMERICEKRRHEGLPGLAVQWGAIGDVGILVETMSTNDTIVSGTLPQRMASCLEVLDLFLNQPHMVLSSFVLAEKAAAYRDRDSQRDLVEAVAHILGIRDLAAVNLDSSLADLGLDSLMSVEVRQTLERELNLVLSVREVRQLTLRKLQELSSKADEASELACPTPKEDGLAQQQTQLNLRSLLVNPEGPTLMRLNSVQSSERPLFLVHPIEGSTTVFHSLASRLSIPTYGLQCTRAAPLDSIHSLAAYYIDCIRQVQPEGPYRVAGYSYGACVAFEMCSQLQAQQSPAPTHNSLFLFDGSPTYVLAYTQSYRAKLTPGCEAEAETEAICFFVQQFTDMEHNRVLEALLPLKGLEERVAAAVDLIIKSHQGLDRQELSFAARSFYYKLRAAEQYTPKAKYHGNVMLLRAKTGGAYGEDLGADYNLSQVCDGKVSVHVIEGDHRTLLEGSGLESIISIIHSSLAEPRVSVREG

[24] = biological target: T5, Fatty acid synthase; assay: FAS thioesterase domain inhibitors, dose response, biochemical, kinetic fluorescence intensity (AID 624326); format: functional;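 also: rate of fluorescence rise from hydrolysis of a fluorogenic O-methyl fluorescein ester substrate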

## CC1(C)Cc2c(cnn2-c2ccccc2)-c2c1c1ccccc1n2CC(O)CCl (stereo unspecified)
[1]
  EC50: > 150 µM (not active)
[2]
  CC50: > 40 µM (active)
[3]
  EC50: 13.7 µM (active)
[4]
  EC50: 8.41 µM (active)

## Cc1ccc(/C=C2\SC(NS(=O)(=O)c3cccs3)=NC2=O)cc1
[5]
  IC50: 71.5 µM (active)
[6]
  IC50: 33.1 µM (active)

## Cc1ccc(-n2cc(CN3CCN(Cc4nccn4C)CC3)c(-c3cccc(C)c3)n2)cc1
[7]
  IC50: 10.5 µM (active)

## CCc1ccc2nc(N(CCCN(C)C)C(=O)c3ccc(S(=O)(=O)N4CCCc5ccccc54)cc3)sc2c1
[8]
  EC50: 0.187 µM (active)
[9]
  EC50: 9.15 µM (active)
[2]
  CC50: 13.8 µM (active)
[10]
  AC50: 6.44 µM (active)
[11]
  CC50: 12.7 µM (active)

## CCCn1c(C)nc2c(N(CCOC)CCOC)nc(C)nc21
[12]
  AC50: 15.8 µM (inconclusive)

## Cc1cc(NS(=O)(=O)c2ccc(NC(=O)CSc3nc(O)c4c(C)c(C)sc4n3)cc2)no1
[5]
  IC50: 81.9 µM (active)
[6]
  IC50: 35.8 µM (active)

## COCCNC(=O)C1(CC(C)C)C=CCN1C(=O)c1ccccc1 (stereo unspecified)
[12]
  AC50: 20 µM (inconclusive)

## Cc1cccc(C(=O)NC2CCN(C(=S)NCc3ccco3)CC2)c1
[6]
  IC50: 113 µM (active)

## O=C(NC1CCN(C(=S)NCc2ccco2)CC1)c1cccc(F)c1
[6]
  IC50: 79.9 µM (active)

## CCCOc1ccc(C(CC(=O)O)NC(=O)c2sc3ccccc3c2Cl)cc1 (stereo unspecified)
[7]
  IC50: 7.59 µM (active)

## O=C(CN1C(=O)S/C(=C\c2cccc(Cl)c2)C1=O)NCCCn1ccnc1
[7]
  IC50: 20.9 µM (active)

## Cc1ccccc1N(CC(=O)NC(C)(C)C)C(=O)C[S+]([O-])CC(=O)Nc1ccc2c(c1)OCO2 (stereo unspecified)
[6]
  IC50: 79.3 µM (active)

## Oc1ccc2c(c1)OCO2
[12]
  AC50: 15.8 µM (inconclusive)

## Cc1ccc(Cl)cc1N1CCN(Cc2nc(O)c3sccc3n2)CC1
[2]
  CC50: > 40 µM (active)

## COc1cc2c(cc1N)-c1ccc(N)cc1C2
[13]
  IC50: 10.7 µM (active)
[14]
  IC50: > 100 µM (active)

## Oc1ccccc1/C=N/Nc1ncc(Br)cn1
[15]
  CC50: 3.26 µM (active)
[16]
  CC50: 6.62 µM (active)
[17]
  AC50: 2.77 µM (active)
[18]
  EC50: 23 µM (active)
[19]
  CC50: > 20 µM (active)
[20]
  EC50: 7.46 µM (active)
[21]
  IC50: 7.9 µM (active)

## O=C(Cn1cnc([N+](=O)[O-])n1)N/N=C/c1cc(Cl)ccc1O
[22]
  IC50: 12.3 µM (active)
[23]
  IC50: 1.22 µM (active)
[24]
  IC50: 2.94 µM (active)
[18]
  EC50: > 350 µM (not active)
[20]
  EC50: 14.5 µM (active)
[6]
  IC50: 13.3 µM (active)

## CCOC(=O)C(Cc1ccc(O)cc1)NC(C)=O (stereo unspecified) [ACETYL TYROSINE ETHYL ESTER]
[12]
  AC50: 25.1 µM (inconclusive)

## COc1c2c(c(CC=C(C)C)c3oc(=O)c(-c4ccc(O)cc4)c(O)c13)OC(C)(C)C=C2 [LONCHOCARPIC ACID]
[12]
  AC50: 12.6 µM (inconclusive)

## CC(C)(C)CC(C)(C)c1ccc(OCCO)cc1 [TRITON X]
[12]
  AC50: 31.6 µM (inconclusive)
